Where no end group is shown, it is not given here. C11H22NO6P = phosphorylcholine group attached via 2-methacryloyloxyethyl phosphorylcholine
Key:
B1a cells (CD19+CD5+) = assay: Nanofiber uptake in i.p. lavage cells, flow cytometry: B1a cells; format: in vivo, mouse
Method: (§1) Nanofiber Uptake and Evaluation. The cell types present and their propensity to uptake nanofibers in the i.p. space was tested by injecting mice i.p. with 100 μL of 2 mM TAMRA-labeled fluorescent nanofibers. 4 hours later, mice were euthanized and i.p. lavage was conducted via the injection of 2 mL of cold 1×PBS into the peritoneal cavity and massaging the abdomen for 30 seconds. The solution was then carefully extracted from the i.p. space and the cells were isolated followed by rinsing with ice cold flow buffer (2% heat-inactivated FBS in 1×PBS). The cells present were treated with mouse BD Fc Block (Clone: 2.4G2) (BD Biosciences, 553142) in flow buffer on ice for 30 min and then washed and stained with antibodies against the following markers: CD5-APC (Clone: 53-7.3) (BioLegend, 100626), F4/80-PerCP/Cy5.5 (Clone: BM8) (BioLegend, 123128), CD19-APC/Cy7 (Clone: 6D5) (BioLegend, 115530), CD11c-PE/Cy7 (Clone: N418) (BioLegend, 117318), and CD86-BV605 (Clone: GL1) (BD Biosciences, 2272591) in flow buffer for 30 min on ice. TAMRA-fluorescence as an indication of nanofiber uptake was measured on the PE channel. Cells were then washed in flow buffer and stained with DAPI. Flow cytometry was conducted on a BD FACSCanto II cytometer and the results were analyzed using FlowJo software.

macrophages (F4/80+) = assay: Nanofiber uptake in i.p. lavage cells, flow cytometry: macrophages; format: in vivo, mouse; conditions: 4 hours after i.p. injection of TAMRA-labeled nanofibers
Method: as §1

[1] = system: mouse anti-PC IgM monoclonal antibody (Clone: BH8); assay: ELISA for measuring nanofiber epitope reactivity; format: binding; conditions: nanofibers coated at 0.2 mM; PC-BSA positive control
Method: ELISA for Measuring Nanofiber Epitope Reactivity. The reactivity of PC conjugation methods was determined via binding of a mouse anti-PC IgM monoclonal antibody (Clone: BH8) (Sigma, MABF2084) to nanofibers. Nanofibers were diluted to 0.2 mM and coated onto 96-well plates at 4° C. overnight. PC-BSA (Biosearch Technologies, PC-1011-10) was coated at 20 μg/mL in 1×PBS overnight as a positive control, and PBS was used as a negative control. The next day, the plates were washed using 1×PBS with 0.05% Tween 20 (1×PBST) and then blocked with Superblock blocking buffer solution (Thermo Fisher, 37515) three times. This was followed by the addition anti-PC IgM which was serially diluted in 1% BSA in 1×PBST by 5-fold steps beginning from 1:100 (5 μg/mL) and allowed to incubate for 2 h at room temperature. Anti-PC IgM bound to nanofibers was then detected with HRP-conjugated goat anti-mouse IgM (Southern Biotech, 1021-05) and the absorbance values at 450 nm were measured.

[2] = Thioflavin T (ThT) assay for β-sheets; format: physicochemical; conditions: peak fluorescence intensity around 488 nm
Method: Thioflavin T (ThT) Assay. β-sheets were detected by Thioflavin T (ThT) (Alfa Aesar, J61043) binding and resulting fluorescence. 180 μL of 0.05 mM ThT was added to 20 μL of 2 mM nanofibers in a 96-well black plate and allowed to incubate for 1 min. Fluorescence intensity was then determined using an excitation wavelength of 440 nm and emission wavelengths from 460-600 nm at 5 nm intervals. A peak fluorescence intensity at an emission wavelength around 488 nm is indicative of β-sheets.

[3] = system: dendritic cells (F4/80−CD11c+); assay: Nanofiber uptake in i.p. lavage cells, flow cytometry: dendritic cells; format: in vivo, mouse; conditions: 4 hours after i.p. injection of TAMRA-labeled nanofibers
Method: as §1

C11H22NO6P-CSGSG-QQKFQFQFEQQ-NH2 (C(C11H22NO6P)SGSGQQKFQFQFEQQ-NH2) [PC-Q11, phosphodiester PC-Q11]
CD86 activation marker on TAMRA+ B1a cells vs non-B1a cells (B1a cells (CD19+CD5+); 4 hours after i.p. injection): not seen
macrophages staining positively for nanofibers (macrophages (F4/80+)): almost all macrophages staining positively for nanofibers
binding of anti-PC mAb to nanofibers [1]: bound
thioflavin-T binding (β-sheet fibrillar structure) [2]: bound thioflavin-T (ThT)
DCs that acquired nanofibers [3]: about 67%

(C11H22NO6P)n-CCCCSGSG-QQKFQFQFEQQ-NH2 (CCCCSGSGQQKFQFQFEQQ-NH2; not fully specified; cysteine pairing not given here; also: phosphorylcholine groups (C11H22NO6P) n=1-4, attachment not placed) [PCM-Q11, linear multi-PC conjugate]
CD86 activation marker on TAMRA+ B1a cells vs non-B1a cells (B1a cells (CD19+CD5+); 4 hours after i.p. injection): selective elevation on B1a cells
TAMRA MFI of B1a cells (B1a cells (CD19+CD5+); 4 hours after i.p. injection): selective uptake
B1a cells stained positively for nanofibers (B1a cells (CD19+CD5+); 4 hours after i.p. injection of TAMRA-labeled nanofibers): about 75%
B1a cells among total TAMRA+ cells (B1a cells (CD19+CD5+); total TAMRA+ cells categorized by cell type): acquired by a substantial B1a cell population
macrophages staining positively for nanofibers (macrophages (F4/80+)): almost all macrophages staining positively for nanofibers
binding of anti-PC mAb to nanofibers [1]: increased binding of an anti-PC mAb compared to PC-Q11 nanofibers and PC-BSA
thioflavin-T binding (β-sheet fibrillar structure) [2]: bound thioflavin-T (ThT)
DCs that acquired nanofibers [3]: < 30%

From US20250281629A1, “COMPOSITIONS AND METHODS FOR ANTI-PHOSPHOCHOLINE ACTIVE IMMUNOTHERAPY” (Duke University, priority 2022, published 2025)
